Laboratory results published in ChEMBL document CHEMBL4342458, “Reisolation and Configurational Reinvestigation of Cottoquinazolines E-G from an Arthropod-Derived Strain of the Fungus Neosartorya fischeri” (2020).

Columns and labels:
Format in all cases: functional
Staphylococcus aureus = assay: Antibacterial activity against methicillin-resistant Staphylococcus aureus ATCC 43300 assessed as reduction in microbial growth after 16 hrs by broth microdilution method; conditions: ATCC 43300, 16 h
Pseudomonas aeruginosa = assay: Antibacterial activity against Pseudomonas aeruginosa ATCC 27853 assessed as reduction in microbial growth after 16 hrs by broth microdilution method; conditions: ATCC 27853, 16 h
Klebsiella pneumoniae = assay: Antibacterial activity against Klebsiella pneumoniae ATCC BAA2146 assessed as reduction in microbial growth after 16 hrs by broth microdilution method; conditions: ATCC BAA2146, 16 h
Enterococcus faecalis = assay: Antibacterial activity against Enterococcus faecalis ATCC 29212 assessed as reduction in microbial growth after 16 hrs by broth microdilution method; conditions: ATCC 29212, 16 h
Escherichia coli = assay: Antibacterial activity against ESBL-producing Escherichia coli ATCC 35218 assessed as reduction in microbial growth after 16 hrs by broth microdilution method; conditions: ATCC 35218, 16 h
Acinetobacter baumannii = assay: Antibacterial activity against Acinetobacter baumannii ATCC 19606 assessed as reduction in microbial growth after 16 hrs by broth microdilution method; conditions: ATCC 19606, 16 h

Row | SMILES | MIC (Staphylococcus aureus) | MIC (Pseudomonas aeruginosa) | MIC (Klebsiella pneumoniae) | MIC (Enterococcus faecalis) | MIC (Escherichia coli) | MIC (Acinetobacter baumannii)
1 | C[C@@H]1N[C@H]2N(C1=O)c1ccccc1[C@@]21C[C@H]2C(=O)N[C@@H](O1)c1nc3ccccc3c(=O)n12 | ≥ 100 µg/mL | ≥ 100 µg/mL | ≥ 100 µg/mL | ≥ 100 µg/mL | ≥ 100 µg/mL | ≥ 100 µg/mL
2 | C[C@@H]1N[C@H]2N(C1=O)c1ccccc1[C@@]21C[C@H]2C(=O)N(C)[C@@H](O1)c1nc3ccccc3c(=O)n12 | ≥ 100 µg/mL | 32 µg/mL | ≥ 100 µg/mL | 16 µg/mL | 8 µg/mL | 32 µg/mL
3 | C[C@H]1C(=O)N2c3ccccc3[C@@]3(O)C[C@H]4C(=O)N[C@H](c5nc6ccccc6c(=O)n54)N1[C@@H]23 | ≥ 100 µg/mL | ≥ 100 µg/mL | ≥ 100 µg/mL | ≥ 100 µg/mL | ≥ 100 µg/mL | ≥ 100 µg/mL
4 | NCC[C@H](O)C(=O)N[C@@H]1C[C@H](N)[C@@H](O[C@H]2O[C@H](CN)[C@@H](O)[C@H](O)[C@H]2O)[C@H](O)[C@H]1O[C@H]1O[C@H](CO)[C@@H](O)[C@H](N)[C@H]1O [AMIKACIN] |  | 2 µg/mL | 8 µg/mL |  | 4 µg/mL | 2 µg/mL
5 | CO/N=C(\C(=O)N[C@@H]1C(=O)N2C(C(=O)O)=C(CSc3nc(=O)c(O)nn3C)CS[C@H]12)c1csc(N)n1 [CEFTRIAXONE] |  | 2 µg/mL | 8 µg/mL |  | 8 µg/mL | 8 µg/mL
6 | CN[C@H](CC(C)C)C(=O)N[C@H]1C(=O)N[C@@H](CC(N)=O)C(=O)N[C@H]2C(=O)N[C@H]3C(=O)N[C@H](C(=O)N[C@H](C(=O)O)c4cc(O)cc(O)c4-c4cc3ccc4O)[C@H](O)c3ccc(c(Cl)c3)Oc3cc2cc(c3O[C@@H]2O[C@H](CO)[C@@H](O)[C@H](O)[C@H]2O[C@H]2C[C@](C)(N)[C@H](O)[C@H](C)O2)Oc2ccc(cc2Cl)[C@H]1O [VANCOMYCIN] |  |  |  | 0.5 µg/mL |  | 
